Assay results published in patent US7795226B2, “Control of radiation injury” (Biotempt B.V., priority 2006, dated 2010).
Where “and” joins values, the source holds several entries; their conditions need not be identical. Equal values may be shown once.

Legend:
Assay type in all cases: in vivo
[1] = system: renal ischemia reperfusion in mice; experiment: mouse renal ischemia reperfusion test; parameters: BUN after 25 minutes renal ischemia, mean / Urea levels in dose-response experiment: unit not given here; details: for mortality at 72 hours post-reperfusion: 5 mg/kg i.v. before and after 25 minutes clamping, dead/total
Protocol: Six oligopeptides (i.e., A: LAGV (SEQ ID NO:121); B: AQGV (SEQ ID NO:120); C: LAG; D: AQG; E: MTR; and F: MTRV (SEO ID NO:119)) were tested and compared with PBS (control) in a double blind animal study for each peptide's relative ability to aid recovery in a mouse renal ischemia reperfusion test. In this test, the mice were anesthetized, and one kidney from each mouse was removed. The other kidney was tied off for 25 minutes, and the serum urea levels were allowed to increase. Both before and after tying off, each of the separate peptides was administered to thirty (30) different mice (5 mg oligopeptide / kg body mass intravenously), after which, the mortality of the mice was determined for each oligopeptide as well as was the BUN concentration at two hours, 24 hours and 72 hours. The results are shown in Table 3 below (excluding the results of peptide A (LAGV (SEQ ID NO:121)) obtained in Example 3).
Under inhalation anesthesia, the left kidney with its artery and vein was isolated and occluded for 25 minutes using a microvascular clamp. During surgery, animals were placed on a heating pad to maintain body temperature at 37° C. Five minutes before placing the clamp, and five minutes before releasing the clamp, 5 mg/kg of peptide dissolved in 0.1 mL of sterile saline, was administered intravenously. After reperfusion of the left kidney, the right kidney was removed. Kidney function was assessed by measuring blood urea nitrogen before clamping, and at 2, 24, and 72 hours after reperfusion.
Peptides were tested at 0.3, 1, 3, 10 and 30 mg/kg dosages given as described in Example 3. P values (calculated by Mann Whitney U-test (SPSS for Windows)) of serum urea levels of PBS compared to peptide D groups at 72 hours post-clamping were at 0.3 mg/kg 0.001, at 1 mg/kg 0.009, at 3 mg/kg 0.02, at 10 mg/kg 0.000, and at 30 mg/kg 0.23; for peptide B (SEQ ID NO:120) groups, these P-values were 0.88, 0.054, 0.000, 0.001 and 0.003.

[2] = system: high dose LPS (E. coli 026:B6)-induced septic shock in BALB/c mice; experiment: high dose LPS-induced septic shock, peptide administered twice; details: peptide twice (t = 2 and 24 hours) 5 mg/kg
Protocol: (§1) Mice used in sepsis or septic shock experiments: Female BALB/c mice of eight to twelve weeks of age were used for all experiments. The animals were bred in our facility under specific pathogen-free conditions according to the protocols described in the […] of European Laboratory Animal Science Associations (FELASA) Working group on Animal Health (Laboratory Animals 28:1-24, 1994).
(§2) Injection protocols: For the endotoxin model, BALB/c mice were injected i.p. with 150-300 μg LPS (E. coli 026:B6; Difco Lab., Detroit, Mich., USA). Control groups were treated with PBS i.p. only. To test the effect of peptides, they were dissolved in PBS and injected i.p. at predetermined points in time after LPS treatment.
(§3) Mice were scored for sickness severity using the following measurement scheme: • 0 No abnormalities. • 1 Percolated fur, but no detectable behavior differences compared to normal mice. • 2 Percolated fur, huddle reflex, responds to stimuli (such as tap on cage), just as active during handling as healthy mouse. • 3 Slower response to tap on cage, passive or docile when handled, but still curious when alone in a new setting. • 4 Lack of curiosity, little or no response to stimuli, quite immobile. • 5 Labored breathing, inability or slow to self-right after being rolled onto back (moribund, sacrificed). • D Dead.
A second set of septic shock experiments were set up to determine which of the peptides LQG, LQGV (SEQ ID NO:117), VLPALP (SEQ ID NO:140), VLPALPQ (SEQ ID NO:143), MTR, MTRV (SEQ ID NO:119), VVC or AQG, AQGV (SEQ ID NO:120), LAG and LAGV (SEQ ID NO:121) were capable of inhibiting high dose LPS-induced septic shock in mice by treating mice with a double dose of peptide at two and 24 hours after LPS treatment. At each treatment, peptides were used at 5 mg/kg bodyweight. BALB/c mice were injected i.p. with high doses LPS (E. coli 026:B6; Difco Lab., Detroit, Mich. USA), predetermined to be leading to 80 to 100% mortality in 24 to 72 hours.

[3] = system: LPS (E. coli 026:B6)-induced septic shock in BALB/c mice; experiment: LPS-induced septic shock, single dose of peptide; details: single dose 5 mg/kg
Protocol: as §1, §2, §3
A first set of septic shock experiments were set up to determine which of the peptides LQG, LQGV (SEQ ID NO:117), VLPALP (SEQ ID NO:140), VLPALPQ (SEQ ID NO:143), MTR, MTRV (SEQ ID NO:119), VVC or QVVC (SEQ ID NO:118) were capable of inhibiting lipopolysaccharide (LPS)-induced septic shock in mice by treating mice with a single dose of peptide at two hours after LPS treatment. Peptides were used at 5 mg/kg bodyweight. BALB/c mice were injected i.p. with escalating doses LPS (E. coli 026:B6; Difco Lab., Detroit, Mich. USA), predetermined to be leading to 80 to 100% mortality in 24 to 72 hours.
To test the effect of peptide early in the development of shock, mice were treated at two hours or at 24 hours after treatment with varying doses of LPS by i.p. injection with test peptide at 5 mg/kg bodyweight.

[4] = 2 hours after reperfusion, 5 mg/kg i.v.
[5] = 24 hours after reperfusion, 5 mg/kg i.v.
[6] = 72 hours after reperfusion, 5 mg/kg i.v.
[7] = t = 0 hr (before clamping), 5 mg/kg i.v.

AQGV
Mortality in dose-response experiment ([1]; 0.3 mg/kg, 24 hours): 0-9
Urea levels in dose-response experiment ([1]; 0.3 mg/kg, 24 hours): 62.4
Mortality in dose-response experiment ([1]; 0.3 mg/kg, 72 hours): 2-10
Urea levels in dose-response experiment ([1]; 0.3 mg/kg, 72 hours): 86.7
Mortality in dose-response experiment ([1]; 1.0 mg/kg, 24 hours): 0-10
Urea levels in dose-response experiment ([1]; 1.0 mg/kg, 24 hours): 50.0
Mortality in dose-response experiment ([1]; 1.0 mg/kg, 72 hours): 1-8
Urea levels in dose-response experiment ([1]; 1.0 mg/kg, 72 hours): 52.6
Mortality in dose-response experiment ([1]; 3.0 mg/kg, 24 hours): 1-10
Urea levels in dose-response experiment ([1]; 3.0 mg/kg, 24 hours): 37.4
Mortality in dose-response experiment ([1]; 3.0 mg/kg, 72 hours): 0-10
Urea levels in dose-response experiment ([1]; 3.0 mg/kg, 72 hours): 19.6
BUN concentration versus the PBS control group (in words) ([1]; 5 mg/kg i.v.): reduced BUN concentration
mortality versus the PBS control group (in words) ([1]; 5 mg/kg i.v.): significant reduction in mortality
mortality at 72 hours post-reperfusion [1]: 0/10
Mortality in dose-response experiment ([1]; 10.0 mg/kg, 24 hours): 0-10
Urea levels in dose-response experiment ([1]; 10.0 mg/kg, 24 hours): 41.2
Mortality in dose-response experiment ([1]; 10.0 mg/kg, 72 hours): 0-8
Urea levels in dose-response experiment ([1]; 10.0 mg/kg, 72 hours): 37.1
Mortality in dose-response experiment ([1]; 30.0 mg/kg, 24 hours): 0-8
Urea levels in dose-response experiment ([1]; 30.0 mg/kg, 24 hours): 47.8
Mortality in dose-response experiment ([1]; 30.0 mg/kg, 72 hours): 3-10
Urea levels in dose-response experiment ([1]; 30.0 mg/kg, 72 hours): 38.0
BUN after 25 minutes renal ischemia, mean [1, 4]: 16.62
BUN after 25 minutes renal ischemia, mean [1, 5]: 26.36
BUN after 25 minutes renal ischemia, mean [1, 6]: 22.31
BUN after 25 minutes renal ischemia, mean [1, 7]: 9.713
mice with sickness score 1, effect at t = 24 hours ([2]; LPS dose 10.5): 2
mice with sickness score 1, effect at t = 48 hours ([2]; LPS dose 10.5): 5
mice with sickness score 2, effect at t = 24 hours ([2]; LPS dose 10.5): 3
mice with sickness score 1, effect at t = 24 hours ([2]; LPS dose 11): 2
mice with sickness score 1, effect at t = 48 hours ([2]; LPS dose 11): 6
mice with sickness score 2, effect at t = 24 hours ([2]; LPS dose 11): 4

LAGV (tetramer peptide)
BUN concentration versus the PBS control group (in words) ([1]; 5 mg/kg i.v.): reduced BUN concentration
mortality versus the PBS control group (in words) ([1]; 5 mg/kg i.v.): significant reduction in mortality
mortality at 72 hours post-reperfusion [1]: 6/10
BUN after 25 minutes renal ischemia, mean [1, 4]: 14.03
BUN after 25 minutes renal ischemia, mean [1, 5]: 38.86
BUN after 25 minutes renal ischemia, mean [1, 6]: 32.8875
BUN after 25 minutes renal ischemia, mean [1, 7]: 8.167
mice scored D (dead), effect at t = 48 hours ([2]; LPS dose 10.5): 4
mice with sickness score 3, effect at t = 24 hours ([2]; LPS dose 10.5): 1
mice with sickness score 3, effect at t = 48 hours ([2]; LPS dose 10.5): 1
mice with sickness score 5, effect at t = 24 hours ([2]; LPS dose 10.5): 4
mice scored D (dead), effect at t = 24 hours ([2]; LPS dose 11): 1
mice scored D (dead), effect at t = 48 hours ([2]; LPS dose 11): 4
mice with sickness score 3, effect at t = 24 hours ([2]; LPS dose 11): 1
mice with sickness score 3, effect at t = 48 hours ([2]; LPS dose 11): 2
mice with sickness score 4, effect at t = 24 hours ([2]; LPS dose 11): 1
mice with sickness score 5, effect at t = 24 hours ([2]; LPS dose 11): 3

LQG
mice scored D (dead), effect at t = 24 hours ([3]; LPS dose 7**): 1
mice scored D (dead), effect at t = 48 hours ([3]; LPS dose 7**): 5
mice with sickness score 4, effect at t = 24 hours ([3]; LPS dose 7**): 3
mice with sickness score 4, effect at t = 48 hours ([3]; LPS dose 7**): 1
mice with sickness score 5, effect at t = 24 hours ([3]; LPS dose 7**): 2
mice scored D (dead), effect at t = 48 hours ([3]; LPS dose 7*): 4
mice with sickness score 4, effect at t = 24 hours ([3]; LPS dose 7*): 3
mice with sickness score 5, effect at t = 24 hours ([3]; LPS dose 7*): 3
mice with sickness score 5, effect at t = 48 hours ([3]; LPS dose 7*): 2
mice scored D (dead), effect at t = 24 hours ([3]; LPS dose 8): 1
mice scored D (dead), effect at t = 48 hours ([3]; LPS dose 8): 6
mice with sickness score 2, effect at t = 24 hours ([3]; LPS dose 8): 2
mice with sickness score 3, effect at t = 24 hours ([3]; LPS dose 8): 1
mice with sickness score 3, effect at t = 48 hours ([3]; LPS dose 8): 1
mice with sickness score 4, effect at t = 48 hours ([3]; LPS dose 8): 2
mice with sickness score 5, effect at t = 24 hours ([3]; LPS dose 8): 4
mice with sickness score 5, effect at t = 48 hours ([3]; LPS dose 8): 3
mice with sickness score 3, effect at t = 24 hours ([3]; LPS dose 10): 1
mice with sickness score 4, effect at t = 24 hours ([3]; LPS dose 10): 2
mice with sickness score 4, effect at t = 48 hours ([3]; LPS dose 10): 1
mice with sickness score 5, effect at t = 48 hours ([3]; LPS dose 10): 2
mice scored D (dead), effect at t = 48 hours ([3]; LPS dose 10, 5 mg/kg): 4 and 3
mice with sickness score 5, effect at t = 24 hours ([3]; LPS dose 10, 5 mg/kg): 4 and 3
BUN after 25 minutes renal ischemia, mean [1, 4]: 16.75
BUN after 25 minutes renal ischemia, mean [1, 5]: 26.74
BUN after 25 minutes renal ischemia, mean [1, 6]: 83.96
BUN concentration versus PBS (in words) ([1]; at 24 hours post-reperfusion, 5 mg/kg i.v.): reduced BUN concentration
BUN after 25 minutes renal ischemia, mean [1, 7]: 7.821
mice scored D (dead), effect at t = 48 hours ([2]; LPS dose 10.5): 5
mice with sickness score 5, effect at t = 24 hours ([2]; LPS dose 10.5): 5
mice scored D (dead), effect at t = 48 hours ([2]; LPS dose 11): 6
mice with sickness score 4, effect at t = 24 hours ([2]; LPS dose 11): 6
